Values after ≈ are worked out from the molar mass of the structure shown. Where a SMILES comes first, the peptide text is derived from it. The star is where a group is joined. Myristoyl = CCCCCCCCCCCCCC(=O)*
Tests used:
[1] = tested on: C. neoformans cdc50Δ mutant strain; format: cell-based, Cryptococcus neoformans; details: concentration of the peptide in combination with caspofungin; ΔCDC50
Experimental: The Fractional Inhibitory Concentration Index were calculated as follows: […]

[2] = tested on: C. neoformans wild type strain H99; assay: microbe, parasite or virus in culture; format: cell-based, Cryptococcus neoformans; details: wild-type H99, alone, read at 24 and 48 hours, 37° C.
Experimental: The assays followed standard CLSI protocol for broth microdilution assays using yeasts.(32) Microbes were passaged in YPD media at 37° C. with mixing for 2 days before harvesting with an inoculation loop to prepare monocultures on Sabouraud Dextrose Agar (SDA) plates. Monocultures on SDA plates were incubated for 2 days at 37° C. before harvesting cells for microdilution assays. RPMI media (100 μL) was charged to each of the 96 wells in a 96 well plate, with an additional 100 μL in the first column. […] The 100 μL was serially diluted by a factor of 2 from the first column to the 11th column. Microbe inoculant was then prepared. An inoculation loop was used to transfer 1-3 colonies of cells to 1 mL phosphate buffer solution (PBS). The PBS and microbe solution was made uniform by vortex mixing. Cell concentration was computed by comparing the absorbance at 530 nm to 1× McFarland standard solution and multiplying the resulting ratio by 10^7 cell/mL conversion factor. Plate inoculant was prepared by diluting the PBS microbe solution to 5000 cell/mL, in RPMI media. A 100 μL aliquot of cells was transferred to each of the wells on the plate other than column 11 for the no growth control. The operating volume was 200 μL, with 500 CFU per well for a final concentration of 2.5*10^3 cells/mL.

[3] = tested on: C. neoformans cdc50Δ mutant strain; format: cell-based, Cryptococcus neoformans; details: alone
Experimental: The assays followed standard CLSI protocol for broth microdilution assays using yeasts.(32) Microbes were passaged in YPD media at 37° C. with mixing for 2 days before harvesting with an inoculation loop to prepare monocultures on Sabouraud Dextrose Agar (SDA) plates. Monocultures on SDA plates were incubated for 2 days at 37° C. before harvesting cells for microdilution assays. RPMI media (100 μL) was charged to each of the 96 wells in a 96 well plate, with an additional 100 μL in the first column. Peptide-DMSO solution (4 μL) at 12.8 mg/mL was charged to each of the wells in the first column. The 100 μL was serially diluted by a factor of 2 from the first column to the 11th column. Microbe inoculant was then prepared. An inoculation loop was used to transfer 1-3 colonies of cells to 1 mL phosphate buffer solution (PBS). The PBS and microbe solution was made uniform by vortex mixing. Cell concentration was computed by comparing the absorbance at 530 nm to 1× McFarland standard solution and multiplying the resulting ratio by 10^7 cell/mL conversion factor. Plate inoculant was prepared by diluting the PBS microbe solution to 5000 cell/mL, in RPMI media. A 100 μL aliquot of cells was transferred to each of the wells on the plate other than column 11 for the no growth control. The operating volume was 200 μL, with 500 CFU per well for a final concentration of 2.5*10^3 cells/mL.

[4] = tested on: C. neoformans wild type strain H99
Experimental: Microbes were prepared in the same manner as the MIC assay. […] 100 μL of RPMI media was added to the first 8 wells in the first row. […] The 100 μL of media with drug was serially diluted from the first row to the final row. […] Column 11 was the no growth control, and 12 was the no drug control. The plate was inoculated with microbes in the same manner as the MIC assay. Again, 200 uL was the operating volume, 500 CFU per well, 2.5*10^3 cell/mL. Plates were incubated for 48 hours at 37° C. and read thereafter. The Fractional Inhibitory Concentration Index were calculated as follows:
Where the MICA and MICB are the MIC values of drugs A and B alone and FICA and FICB are the Fractional Inhibitory concentrations of drugs A and B in the presence of each other, respectively.

C. neoformans cells = assay: AF350-Annexin V / propidium iodine flow cytometry assay (exofacial phosphatidylserine); format: cell-based, Cryptococcus neoformans; details: 0.128 mg/mL peptide, 20 minutes at 25° C.; control 0.2±0.1%
Experimental: Stock microbes were defrosted from the −80° C. freezer and were passed twice for 48 hours each in YPD media. The YPD media was removed by spinning down and the supernatant was decanted. Pelletized cells were resuspended in 1 mL PBS media and washed for 5 minutes with incubation at 25° C. and 250 RPM. Washed cells were spun down again and suspended in 1 mL of PBS solution. cells were diluted 20-fold into 1 mL fungal working solution in an eppendorf. Cell concentration was quantified via comparison to 1× McFarlain's standard on a plate reader using the absorbance value at 530 nm. An aliquot of 1*10^6 cells in 100 μL was created (1*10^7 cell/mL). […] The cells were incubated for 20 minutes at 25° C. and 250 RPM. Baseline and experimental samples were prepared in triplicate. Cells were stained using an operating concentration of 0.001 mg/mL Propidium Iodine (PI) and a 40-fold dilution of AlexaFluor 350 labelled annexin V as per manufactures instructions. After staining the cells, samples were spun down and supernatant decanted. Cells were then fixed in 4% formaldehyde for 5 minutes. Fixed cells were spun down and supernatant decanted and resuspended in 400 μL 1% formaldehyde for flowcytometry. Samples were collected at a slow flow rate on a MACS Quant 10 device (Miltenyi Biotech, Auburn, CA) with 20,000 events collected per injection.
It was sought to determine whether the activities of the peptides were related to the lipid-flipping activity of the P4-ATPase. […] The intensity of the AF350-annexin V signal corresponds to concentration of PS on the exofacial side of the membrane. The propidium iodine signal corresponds to cell viability.
Single cells were first selected and gated based on morphology to ensure homogeneity among the cell population (4A, 4B). Cells with low propidium iodine intensity (PI-A<9 RU) and high AF350-annexin V intensity (Annexin V-A>9 RU) (4C, 4D) were examined. Under these gating parameters there should be, respectively, low non-specific cell death and high exofacial PS.

[5] = tested on: human red blood cells (RBCs); details: 1 hour 37° C.; relative to Triton X-100 control
Experimental: Hemolysis assays were preformed using human red blood cells (RBCs), which were provided by Interstate Blood Bank (Philadelphia, PA) and stored immediately at 4° C. upon arrival. […] Free heme was extracted from stored RBCs washing in PBS with gentle centrifugation at 1000 RPM for 5 minutes. Washed cells resuspended to 4 mL in PBS and counted using a hemocytometer. […] Red blood cells were adjusted to 5*10^8 cells/mL and 50 uL was added to each of the wells. Operating conditions were 100 μL and 2.5*10^8 cell/mL. The positive control used as 2 μL of 1% Triton X-100. The plate was incubated at 37° C. for 1 hour. The resulting plate was spun down at 1000 RPM for 5 minutes. 20 μL supernatant was transferred to 80 μL PBS in a fresh 96 well plate for analysis (operating volume 100 μL.) A Spectra Max 340 plate reader (Molecular Devices, Sunnyvale, CA) was used to measure the absorbance of the analysis plate at 410 nm. The scans were run in triplicate. Averages and standard deviations between scans and replicates were computed. The negative control was subtracted from all the data points. The resulting corrected data was normalized by the corrected positive control.

C. neoformans H99 = assay: SDS and plate spotting assay; format: cell-based, Cryptococcus neoformans; details: H99 pre-treated with peptide at 128 for one hour; versus untreated or DMSO controls
Experimental: To test cell integrity, C. neoformans strains from 3 ml YPD overnight cultures were washed, resuspended, and serially diluted (1:10) in dH2O and spotted (5 μl) on YPD agar plates or YPD agar plates containing 0.03% SDS and incubated for 2 days at 30° C. and 37° C.
Of each strain, yeast cells were inoculated into liquid YPD with 128 μg/ml or 64 μg/ml peptide and co-incubated for 1 h at 30° C. And then, ten-fold serial dilutions were prepared, and 5 μl of each was spotted on YPD and YPD agar plates containing 0.03% SDS. The results were photographed after a 48 h incubation. Their growth was determined by serial dilutions and the fungal colonies were assessed by CFU numbers.
Briefly, cultures of C. neoformans were grown in YPD and then spotted on YPD plates containing 0.03% SDS.

[6] = tested on: C. neoformans cdc50Δ mutant strain; details: earlier mutation study / literature; cited from earlier work
[7] = tested on: C. neoformans wild type strain H99; details: earlier mutation study; cited from earlier work

SMILES | FIC ug/mL ΔCDC50 Peptide [1] [µg/mL] | MIC ug/mL H99 [2] [µg/mL] | MIC ug/mL ΔCDC50 [3] [µg/mL] | MIC of caspofungin in the presence of the AW9-Ma peptide ([4]; C. neoformans wild type) [mg/L] | FIC ug/mL H99 Peptide ([4]; concentration of the peptide in combination with caspofungin, H99) [µg/mL] | percentage of cells with low propidium iodine intensity (PI-A<9 RU) and high AF350-annexin V intensity (Annexin V-A>9 RU) (C. neoformans cells) | hemolysis of human RBC [5] | growth (colony forming units) on agar medium with 0.03% SDS (C. neoformans H99) | MIC ([2]; Cryptococcus neoformans, read-out: MIC ug/mL H99) [µg/mL] | MIC of caspofungin in cdc50Δ [6] [mg/L] | MIC of caspofungin in wild-type strain H99 [7] [mg/L]
CCCCCCCCCCCCCC(=O)N[C@@H](Cc1c[nH]c2ccccc12)C(=O)NCC(=O)NCC(=O)N[C@H](C(=O)N[C@@H](CCCCN)C(=O)N[C@@H](CCCCN)C(=O)N[C@@H](CC(N)=O)C(=O)N[C@@H](Cc1ccc(O)cc1)C(=O)N[C@@H](C)C(=O)O)[C@@H](C)CC [AW9-Ma] (Myristoyl-WGGIKKNYA-OH) | 0.125 | 64 (≈ 51.3 µM) | 2 (≈ 1.6 µM) | 4 | 16 | 67.6%±2.3 | low amounts of hemolysis | significantly reduced growth |  |  | 
CC[C@H](C)C[C@H](C)CCCCCCCCC(=O)N[C@H]1C[C@@H](O)[C@@H](NCCN)NC(=O)[C@@H]2[C@@H](O)CCN2C(=O)[C@H]([C@H](O)CCN)NC(=O)[C@H]([C@H](O)[C@@H](O)c2ccc(O)cc2)NC(=O)[C@@H]2C[C@@H](O)CN2C(=O)[C@H]([C@@H](C)O)NC1=O [Caspofungin, reference compound] |  |  | 4 (≈ 3.66 µM) |  |  |  |  |  | 16 (≈ 14.6 µM) | 4 | 16
